Assay results published in article PMC5107945, “Abscinazole-E3M, a practical inhibitor of abscisic acid 8′-hydroxylase for improving drought tolerance” (Scientific Reports, 2016).

What was measured:
[1] = tested on: ABA-responsive genes MAPKKK18, RD29A and RD29B; test: qRT-PCR of ABA-responsive genes in Arabidopsis seedlings; type: in vivo, Arabidopsis (Columbia accession); conditions: 10-day-old seedlings, 6 h
Protocol: Figure 5 Effects of (−)-Abz-E3M on the expression levels of Arabidopsis ABA-responsive genes. Expression of MAPKKK18, RD29A and RD29B after treatment with (−)-Abz-E2B or (−)-Abz-E3M in the absence or presence of 0.25 μM ABA (n = 4, error bar represents s.d.).
Arabidopsis (Columbia accession) were grown for 10 d on agar plates containing 1/2 Murashige and Skoog (MS) and 0.5% sucrose at 22 °C under an 18/6-h light/dark cycle. Seedlings were incubated in the chemical solutions for 6 h. Total RNA from seedlings was isolated using the Plant RNA purification reagent (Thermo Fisher Scientific) according to the manufacturer’s instructions. cDNA was synthesised using the QuantiTec reverse transcription kit (Qiagen). Maize (cv. Gold rush, Sakata Seed Corporation) seedlings were grown in 100-mL pots containing 75 g of moist soil in a glass house. The root parts of the maize seedlings were washed with tap water and dipped in 100 μM (−)-Abz-E3M chemical solution containing 0.05% Tween-20 overnight. Total RNA from maize seedlings was isolated using an RNeasy mini kit (Qiagen) with the ‘on-column’ DNA digestion method. cDNA was synthesised using a High-Capacity cDNA Reverse Transcription Kit (Thermo Fisher Scientific). Real-time PCR using SYBR Premix Ex Taq™ II (Takara) was performed with Step One-Plus (Thermo Fisher Scientific). The primer sets are shown in Supplemental Table S1.

[2] = tested on: MAPKKK18 promoter GUS reporter; test: ABA-responsive MAPKKK18::GUS reporter analysis; type: in vivo, Arabidopsis; conditions: co-treatment with ABA; 5 or 25 μM, 6 h; Fig. S6
Protocol: MAPKKK18::GUS reporter-containing transgenic Arabidopsis[32] were grown for 6 d on agar plates containing 1/2 MS and 0.5% sucrose. Seedlings were incubated in 1/2 MS solutions containing 0.5% sucrose with chemicals for 6 h. GUS activities were detected using a reaction buffer containing 50 mM sodium phosphate buffer, 2.5 mM potassium ferrocyanide, 2.5 mM potassium ferricyanide and 1 mM X-gluc. The GUS enzyme reaction was performed at 30 °C for ~12 h. The reaction was stopped by adding 70% EtOH. Tissue-specific GUS staining was observed by microscope after bleaching the chlorophyll pigment.
Supplementary Figure 6. (−)-Abz-E3M enhanced the ABA-inducible MAPKKK18 expression level. Six-day-old seedlings of MAPKKK18::GUS reporter-containing transgenic plants were incubated in solutions containing either 5 or 25 µM of (−)-Abz-E3M

## abscinazole-E3M [(−)-6]
[1]; absence of exogenous ABA
  Expression of ABA-responsive genes MAPKKK18, RD29A and RD29B: did not induce the expression
[1]; co-treatment with 0.25 μM ABA
  Expression of ABA-responsive genes MAPKKK18, RD29A and RD29B: enhanced the expression levels of ABA-responsive genes
[2]
  ABA-inducible GUS staining (MAPKKK18::GUS): enhanced the ABA-inducible GUS staining
